Our source for the GI50, ED score and ΔTm values is patent US20190350964A1, “ANTI-CANCER COMPOUNDS AND USES THEREOF” (NATIONAL UNIVERSITY OF SINGAPORE, priority 2016, published 2019).

SMILES strings stand for the structures.

One assay relates to IMR90. Kind of assay: MTT cytotoxicity test (GI50). Format: cell-based. The note with it: Homo sapiens, IMR-90; IMR90, normal, lung; MTT 72 h. A general note: Tetrazolium dyes change colour on reduction, which living cells bring about.
In assay [1] the target is T1, Isoform 2 of Ferrochelatase, mitochondrial (Homo sapiens, UniProt P22830).
T1 construct: After collecting data covering >8,000 proteins in lysates of normal BJ cells; endogenous in cells; host or cells: normal BJ cells (hTert-immortalised human foreskin fibroblasts), lysate
T1 sequence (P22830 55-429 isoform P22830-2 limits assumed): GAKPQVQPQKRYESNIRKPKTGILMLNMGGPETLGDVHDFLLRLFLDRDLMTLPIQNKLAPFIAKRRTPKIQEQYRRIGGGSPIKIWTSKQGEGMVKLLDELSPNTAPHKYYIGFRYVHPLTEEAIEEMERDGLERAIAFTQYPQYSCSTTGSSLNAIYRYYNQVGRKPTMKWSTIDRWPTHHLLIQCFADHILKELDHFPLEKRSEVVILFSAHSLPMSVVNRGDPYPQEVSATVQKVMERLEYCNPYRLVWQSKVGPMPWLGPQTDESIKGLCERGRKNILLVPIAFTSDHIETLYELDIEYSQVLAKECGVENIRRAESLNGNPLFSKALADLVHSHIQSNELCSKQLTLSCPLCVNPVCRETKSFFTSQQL
Kind of assay: MS-CETSA in normal BJ cell lysates. The class given is binding. The following applies: Uniprot P22830-2, lysate, 100 μM compound.
Protocol: (§1) Target identification was performed by cellular thermal shift assay (CETSA) coupled with quantitative mass spectrometry. In brief, normal BJ cells were lysed by combination of freeze/thaw and mechanical shearing with needle in buffer [50 mM HEPES (pH 7.5), 5 mM β-glycerophosphate, 0.1 mM Sodium Vanadate, 10 mM MgCl2, 1 mM TCEP and 1× Protease inhibitor Cocktail]. The cell debris was removed by centrifugation at 20,000 g for 20 min at 4° C. […] Each lysate was divided into 10 aliquots for heat treatment at the respective temperatures for 3 min in a 96-well thermocycler, followed by 3 min at 4° C. The lysate was centrifuged at 20,000 g for 20 min at 4° C. and the supernatant was transferred into microtubes for MS sample preparation.
(§2) After lysis, at least 100 μg of the protein (measured with a BCA assay) was subjected to reduction, denaturation and alkylation. Samples were subsequently incubated with sequencing grade LysC (Wako) and trypsin (Promega) for digestion overnight at 37° C. The digested samples were dried using a centrifugal vacuum evaporator, solubilized in 100 mM TEAB. […]
(§3) Proteins for which a low temperature plateau was not present were deleted using a cut off >0.85 for the average reading of the first three temperature points (in our experience proteins melting already at −37° C. are more prone to give false positives in a shift analysis).

In assay [2] the target is T2, Arsenite methyltransferase (Homo sapiens, UniProt Q9HBK9).
T2 construct: After collecting data covering >8,000 proteins in lysates of normal BJ cells; endogenous in cells; host or cells: normal BJ cells, lysate
T2 sequence (Q9HBK9 whole entry): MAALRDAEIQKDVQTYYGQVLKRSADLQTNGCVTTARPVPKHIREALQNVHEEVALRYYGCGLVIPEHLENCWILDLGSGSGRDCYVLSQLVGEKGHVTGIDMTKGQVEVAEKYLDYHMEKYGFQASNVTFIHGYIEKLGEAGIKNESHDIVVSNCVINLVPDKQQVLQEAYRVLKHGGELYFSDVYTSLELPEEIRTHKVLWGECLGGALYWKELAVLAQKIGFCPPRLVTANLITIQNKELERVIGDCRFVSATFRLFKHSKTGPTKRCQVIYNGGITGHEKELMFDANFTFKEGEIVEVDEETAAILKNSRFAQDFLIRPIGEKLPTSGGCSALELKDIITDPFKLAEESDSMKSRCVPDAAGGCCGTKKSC
Kind of assay: MS-CETSA in normal BJ cell lysates. The class given is binding. The following applies: lysate, 100 μM compound.
Protocol: as §1, §2, §3

The test system of the next assay is AZ521. Kind of assay: MTT cytotoxicity test (GI50). The class given is cell-based. The following applies: Homo sapiens, AZ-521; AZ521, cancer, gastric; MTT 72 h.

As for `N#C/C(=C\c1cccc2cnccc12)c1c[nH]c2ccccc12` [a131, (Z)-2-(1H-indol-3-yl)-3-(5-isoquinolyl)prop-2-enenitrile], the GI50 amounted to 5.8 µM in the assay on IMR90 and 2.4 µM in the assay with AZ521. The ED score in assay [1] came out at 0.8366; in assay [2] it was 0.6214. The ΔTm at 100 µM in assay [1] (read-out: mean Delta Tm) turned out to be 3.81 °C; in assay [2] (read-out: mean Delta Tm) it was 4.88 °C.

The GI50 is the concentration at which growth is held to half of that of the control. Read a high GI50 as less potent growth inhibition.
